Measured values as given in the supplement of paper PMC4977894.
± gives the standard deviation of the averaged measurements.

What was measured:
[1] = system: Homo sapiens (human subject panel, olfactory perception); test: perceived odor intensity rating (rating 0-100); higher = stronger perceived smell
Outline: (§1)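 Fifty-five healthy human subjects aged 18–50 took part, and the six lowest performers were excluded. Each molecule was diluted in paraffin oil at high and low concentrations, and 1 mL was sniffed in randomized order over ten visits of 100 stimuli each. Subjects who reported smelling a stimulus rated it on a computerized slider that started at 50 and had to be moved, with positions converted to a 0–100 scale. The familiarity, intensity and pleasantness values are averages across subjects.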

[2] = system: Homo sapiens (human subject panel, olfactory perception); test: perceived odor familiarity rating (rating 0-100); higher = more familiar
Outline: as §1

[3] = system: Homo sapiens (human subject panel, olfactory perception); test: perceived odor pleasantness rating (rating 0-100); higher = more pleasant
Outline: as §1

[4] = odor dilution in paraffin oil: 1/1,000
[5] = odor dilution in paraffin oil: 1/100,000
[6] = odor dilution in paraffin oil: 1/10,000,000
[7] = odor dilution in paraffin oil: 1/10

Row | SMILES | perceived odor intensity rating [1, 4] | perceived odor intensity rating [1, 5] | perceived odor familiarity rating [2, 4] | perceived odor familiarity rating [2, 5] | perceived odor pleasantness rating [3, 4] | perceived odor pleasantness rating [3, 5] | perceived odor intensity rating [1, 6] | perceived odor familiarity rating [2, 6] | perceived odor pleasantness rating [3, 6] | perceived odor intensity rating [1, 7] | perceived odor familiarity rating [2, 7] | perceived odor pleasantness rating [3, 7]
1 | CC1=CC(=O)CC(C)(C)C1=O [4-Oxoisophorone] | 49.2 ± 26 | 34 ± 28 | 49.7 ± 28 | 44.2 ± 28 | 47.7 ± 25 | 55 ± 21 |  |  |  |  |  | 
2 | CCCCCCC(=O)OCC [Ethyl heptanoate] | 69.1 ± 23 | 34.8 ± 28 | 59.4 ± 27 | 44.3 ± 29 | 62.6 ± 26 | 55.9 ± 25 |  |  |  |  |  | 
3 | Cc1ccnc2ccccc12 [4-Methylquinoline] |  | 38.7 ± 30 |  | 33.1 ± 30 |  | 40.5 ± 21 | 20.8 ± 22 | 34.8 ± 28 | 49.5 ± 24 |  |  | 
4 | O=Cc1ccccc1 [benzaldehyde] | 77.4 ± 17 | 30.6 ± 29 | 61.3 ± 27 | 45.3 ± 34 | 61.5 ± 29 | 64.6 ± 22 |  |  |  |  |  | 
5 | COC(=O)CCC(=O)OC [dimethyl succinate] | 53.9 ± 29 |  | 43.2 ± 29 |  | 43.6 ± 22 |  |  |  |  | 63.2 ± 28 | 46.2 ± 31 | 49.1 ± 27
6 | Cc1ccc(O)cc1 [p-cresol] | 79 ± 20 | 68 ± 30 | 55 ± 33 | 54.1 ± 31 | 32.3 ± 29 | 31.6 ± 26 |  |  |  |  |  | 
7 | CC(=O)C(=O)O [Pyruvic Acid] | 70.6 ± 23 | 37.7 ± 32 | 52.1 ± 29 | 44.5 ± 29 | 39.1 ± 28 | 53.4 ± 24 |  |  |  |  |  | 
8 | CC(=O)c1cc(C)oc1C [3-Acetyl-2,5-dimethylfuran] |  | 65.6 ± 24 |  | 44.9 ± 27 |  | 31.6 ± 22 | 15.4 ± 22 | 40.2 ± 32 | 48.9 ± 22 |  |  | 
9 | CCOC(=O)CC [ethyl propionate] | 75.7 ± 24 | 53.9 ± 32 | 50.7 ± 31 | 44.5 ± 34 | 39.9 ± 31 | 31.3 ± 30 |  |  |  |  |  | 
10 | CCCCCC(CC)OC(C)=O (stereo not given) [3-Octyl Acetate] | 39.7 ± 31 |  | 48.9 ± 29 |  | 59 ± 26 |  |  |  |  | 83.7 ± 17 | 51.6 ± 32 | 44.9 ± 31
11 | CC(C)C(=O)OCc1ccc2c(c1)OCO2 [Piperonyl isobutyrate] | 29.4 ± 27 | 26.4 ± 30 | 38.4 ± 29 | 30.2 ± 25 | 48.3 ± 25 | 43.1 ± 18 |  |  |  |  |  | 
12 | CC(=O)/C=C/C1=C(C)CCCC1(C)C [beta-Ionone] | 69.7 ± 25 | 50.6 ± 32 | 52.4 ± 30 | 49.8 ± 31 | 49.2 ± 27 | 62.6 ± 25 |  |  |  |  |  | 
13 | S=C=NCCc1ccccc1 [2-Phenylethyl isothiocyanate] | 75.5 ± 20 | 38.2 ± 30 | 47 ± 31 | 41.3 ± 28 | 21.3 ± 21 | 37.7 ± 26 |  |  |  |  |  | 
14 | CCCC(=O)OCCC(C)C [Isoamyl butyrate] | 63.4 ± 26 | 20.4 ± 28 | 51.4 ± 31 | 36.4 ± 32 | 52.8 ± 28 | 45.5 ± 23 |  |  |  |  |  | 
15 | CC/C=C\CCOC(C)=O [cis-3-hexenyl acetate] | 76.7 ± 22 | 41 ± 31 | 73.6 ± 28 | 64.7 ± 30 | 63.8 ± 30 | 70.9 ± 20 |  |  |  |  |  | 
16 | C/C=C/C=C/COC(C)=O [trans,trans-2,4-Hexadienyl acetate] | 22 ± 23 |  | 35.5 ± 27 |  | 51.3 ± 24 |  |  |  |  | 13.9 ± 24 | 24.8 ± 27 | 39.4 ± 25
17 | COc1cnccn1 [2-Methoxypyrazine] | 68.3 ± 29 | 41.6 ± 30 | 51.9 ± 34 | 52.6 ± 30 | 37.3 ± 30 | 54.8 ± 26 |  |  |  |  |  | 
18 | C=CC(O)CCCCC (stereo not given) [1-Octen-3-ol] | 66.5 ± 26 | 37.7 ± 30 | 45.4 ± 32 | 39.4 ± 27 | 40.3 ± 27 | 42.2 ± 20 |  |  |  |  |  | 

Row | SMILES | perceived odor intensity rating [1, 4] | perceived odor intensity rating [1, 5] | perceived odor familiarity rating [2, 4] | perceived odor familiarity rating [2, 5] | perceived odor pleasantness rating [3, 4] | perceived odor pleasantness rating [3, 5] | perceived odor intensity rating [1, 6] | perceived odor familiarity rating [2, 6] | perceived odor pleasantness rating [3, 6] | perceived odor intensity rating [1, 7] | perceived odor familiarity rating [2, 7] | perceived odor pleasantness rating [3, 7]
19 | CC(C)c1ccc(C=O)cc1 [cuminaldehyde] | 59.1 ± 31 | 16.2 ± 20 | 50.9 ± 35 | 31.3 ± 26 | 51.2 ± 28 | 58.1 ± 26 |  |  |  |  |  | 
20 | CCOC(=O)C(C)CC (stereo not given) [Ethyl 2-methylbutyrate] | 76.5 ± 18 | 55.4 ± 28 | 69.6 ± 30 | 67.3 ± 25 | 75.1 ± 24 | 77.9 ± 20 |  |  |  |  |  | 
21 | CCC(C)C1CCCCC1=O (stereo not given) [2-sec-Butylcyclohexanone] | 56.8 ± 28 |  | 44.6 ± 32 |  | 51 ± 24 |  |  |  |  | 81.9 ± 17 | 58.9 ± 32 | 49.3 ± 29
22 | CCOC(=O)C1OC1(C)c1ccccc1 (stereo not given) [Ethyl 3-methyl-3-phenylglycidate] |  | 48.2 ± 32 |  | 48 ± 30 |  | 59.9 ± 25 | 13.3 ± 28 | 28.4 ± 28 | 53.4 ± 23 |  |  | 
23 | CCOC(C)OCC [Acetal] | 48.7 ± 34 | 43.1 ± 33 | 44.7 ± 28 | 35.2 ± 28 | 42.5 ± 24 | 47.9 ± 22 |  |  |  |  |  | 
24 | C=C(C)[C@@H]1CC[C@@H](C)C(=O)C1 [D-Dihydrocarvone] | 45.9 ± 29 |  | 47.2 ± 28 |  | 50.2 ± 23 |  |  |  |  | 81.9 ± 16 | 52.5 ± 34 | 39.5 ± 26
25 | CCCCCCCCCCC=O [undecanal] | 68.2 ± 28 | 20.4 ± 26 | 47.9 ± 32 | 28.2 ± 25 | 36.2 ± 26 | 50 ± 21 |  |  |  |  |  | 
26 | CC(C)[C@H](N)C(=O)O [L-Valine] | 33.1 ± 33 |  | 41.5 ± 34 |  | 50.5 ± 24 |  |  |  |  | 42.1 ± 29 | 39.1 ± 31 | 40.9 ± 25
27 | CCCC=O [butyraldehyde] | 83.4 ± 15 | 51.9 ± 28 | 51.1 ± 29 | 41.8 ± 31 | 17.7 ± 18 | 32.2 ± 21 |  |  |  |  |  | 
28 | c1coc(CSCc2ccco2)c1 [2,2'-(Thiodimethylene)difuran] | 77.1 ± 24 | 73.5 ± 22 | 44.9 ± 32 | 52 ± 32 | 20.1 ± 23 | 26.9 ± 24 |  |  |  |  |  | 
29 | CCCCCCC#CC(=O)OC [Methyl 2-nonynoate] | 71.1 ± 21 | 55.3 ± 30 | 61.9 ± 33 | 55.3 ± 28 | 65 ± 27 | 58.5 ± 29 |  |  |  |  |  | 
30 | CC12CCC(CC1)C(C)(C)O2 [1,8-cineole] | 70.1 ± 24 | 45.5 ± 29 | 69.7 ± 25 | 53.5 ± 30 | 62.5 ± 24 | 61.5 ± 25 |  |  |  |  |  | 
31 | COc1ccc(C=O)cc1 [p-Anisaldehyde] | 71.2 ± 22 | 45.9 ± 31 | 54.5 ± 30 | 49.2 ± 32 | 60 ± 25 | 69 ± 21 |  |  |  |  |  | 
32 | C=CC(C)(O)CCC=C(C)C (stereo not given) [Linalool] | 62.1 ± 26 | 32.6 ± 25 | 60.6 ± 32 | 39.9 ± 30 | 74.6 ± 19 | 66 ± 23 |  |  |  |  |  | 
33 | C[S+](C)[O-] [Methyl sulfoxide] | 35.3 ± 31 |  | 41.6 ± 29 |  | 32.1 ± 26 |  |  |  |  | 50.7 ± 30 | 41.7 ± 33 | 36.7 ± 24
34 | C/C=C(\C)C(=O)OCC/C=C\CC [cis-3-Hexenyl tiglate] | 45.7 ± 30 |  | 47.9 ± 30 |  | 47.6 ± 28 |  |  |  |  | 79.2 ± 18 | 53.4 ± 31 | 47.2 ± 31
35 | O=C(Cc1ccccc1)OCCc1ccccc1 [Phenethyl phenylacetate] | 42.5 ± 33 | 17.2 ± 24 | 32.8 ± 26 | 31.6 ± 32 | 53.4 ± 23 | 52.9 ± 23 |  |  |  |  |  | 
